Where two headings read alike, the source gives them in different places.
Key:
Haemonchus Contortus = experiment: Activity in vitro against Haemonchus contortus (egg hatch / larval development)
Description: (§1) Activity in Vitro against Haemonchus contortus & Trichostrongylus colubriformis (Gastrointestinal nematodes).
(§2) Freshly harvested and cleaned nematode eggs are used to seed a suitably formatted microplate containing the test substances to be evaluated for antiparasitic activity. Each compound is tested by serial dilution in order to determine its MED. The test compounds are diluted in nutritive medium allowing the full development of eggs through to 3rd instar larvae. The plates are incubated for 6 days at 28° C. and 60% relative humidity (RH). Egg-hatching and ensuing larval development are recorded to identify a possible nematocidal activity. Efficacy is expressed in percent reduced egg hatch, reduced development of L3, or paralysis & death of larvae of all stages.

[1] = system: human cervical cancer HeLa; experiment: fluorometric cell viability assay (Resazurin), toxicity towards HeLa; assay type: cell-based; details: 2 days treatment
Description: Cell Culture: Human cervical carcinoma cells (HeLa) were cultured in DMEM (Gibco) supplemented with 5% fetal calf serum (FCS, Gibco), 100 U/ml penicillin, 100 μg ml streptomycin at 37° C. and 5% CO2. The normal human fetal lung fibroblast MRC-5 cell line was maintained in F-10 medium (Gibco) supplemented with 10% FCS (Gibco), 200 mmol/l L-Glutamine, 100 U/ml penicillin, and 100 μg/ml streptomycin at 37° C. and 5% CO2. Toestablish the anticancer potential of the compounds they were tested in one cell line, namely HeLa by a fluorometric cell viability assay using Resazurin (Promocell GmbH). Compounds showing cytotoxicity were then tested on normal MRC-5 cells. 1 day before treatment, cells were plated in triplicates in 96-well plates at a density of 4×10^3 cells/well in 100 μl for HeLa and 7×10^3 cells/well for MRC-5 cells. Cells were treated with increasing concentrations of the compounds for 2 days. After 2 days, medium and drug were removed and […] fresh medium containing Resazurin (0.2 mg/ml final concentration) were added. After 4 h of incubation at 37° C., the highly red fluorescent dye resorufin's fluorescence was quantified at 590 nm emission with 540 nm excitation wavelength in the SpectraMax M5 microplate Reader. […]

[2] = system: Trychostrongylus colubriformis; experiment: Activity in vitro against Trichostrongylus colubriformis (egg hatch / larval development)
Description: as §1, §2

C. elegans = C. elegans movement inhibition assay
Description: C. elegans movement inhibition assay: Asynchronous N2 C. elegans worms (Bristol) were maintained on nematode growth medium (NGM) agar, seeded with a lawn on OP50 E coli as a food-source, according to standard protocol (Maintenance of C. elegans; Stiernagle, T., Ed.; WormBook, 2006.). Worms were harvested from NGM plates by washing with M9 buffer (42 mmol/l Na2HPO4, 22 mmol/l KH2PO4, 86 mmol/l NaCl and 1 mmol/l MgSO4), aspiration and collection in a 10 mL tube (Falcon). The average number of worms in 5 μL of this suspension was calculated by transferring 4×5 μL aliquots to a glass slide (Menzel Glaser), and worms were enumerated under a compound microscope (Olympus CH30). To adjust the suspension to contain 1 worm per μL, M9 buffer was either added or removed after pelleting worms at 600× g for 30 sec.
Dilution of test compounds, Zolvix (monepantel) and DMSO for working stock solutions and 96 well plate set-up for liquid screen: A volume of 70 μL of M9 buffer was added to each well in a 96-well plate, using a multichannel pipettor. A volume of 20 μL of worm suspension was added to each well using a single-channel pipettor, with a trimmed pipette tip (increased aperture to minimize damage to worms). […]
Quantitative worm mobility scoring: Immobile worms were counted as a percentage of total worms in each well using an Olympus SZ30 dissecting microscope. […]

Substance | Activity against Haemonchus Contortus at 10 [mg/mL] (Haemonchus Contortus) [%] | IC50 [1] [µM] | Activity against Trychostrongylus colubriformis at 10 [mg/mL] [2] [%] | efficacy against dirofilaria immitis (in words) (Dirofilaria immitis) | Activity against Dirofilaria immitis at 10 [mg/mL] (Dirofilaria immitis; 10 mg/mL) [%] | Activity against Haemonchus Contortus at 10 [mg/mL] (Haemonchus Contortus; listed as compound 1) | Activity against Haemonchus Contortus at 10 [mg/mL] (Haemonchus Contortus; listed as drawing 26) [%] | Number of L3 H. contortus/100 μM (H. contortus) | mobility of the C. elegans worms (in words) (C. elegans; 50 μM) | Mobility in C. elegans at 50 μM (C. elegans; 24 h incubation) [%] | Activity against Trychostrongylus colubriformis at 10 [mg/mL] ([2]; listed as compound 1) | Activity against Trychostrongylus colubriformis at 10 [mg/mL] ([2]; listed as drawing 26) [%]
N-(2-cyano-1-(5-cyano-2-(trifluoromethyl)phenoxy)propan-2-yl)ruthenoceneamide [Compound 1a] | 0 | > 100 | 0 | moderate efficacy | 30 | – | – | – | – | – | – | –
N-(2-cyano-1-(5-cyano-2-(trifluoromethyl)phenoxy)propan-2-yl)ferroceneamide [Compound 1] | – | 93.2 | – | – | – | up to 69% | 69 | >100 | significantly reduced | 2 | up to 69% | 68
